For 2 compounds, IC50 results are on record in patent publication US11021468B2, “TGF-ß inhibitors” (Rigel Pharmaceuticals, Inc., priority 2015, dated 2021).

One assay has as its system TGF-β. Nature of the assay: AlphaScreen SureFire SMAD3 (p-Ser423/425) assay, TGF-β-stimulated (TGF-β pSMAD (MPC-11)). It counts as cell-based. The following applies: Mus musculus, MPC-11, inhibition of TGF-β signaling, p-SMAD-3 (Ser423/425). An excerpt:
(§1) Example 2: AlphaScreen® SureFire® SMAD3 (p-Ser423/425) Assay
(§2) The p-SMAD-3 (Ser423/425) SureFire® assay has been designed to measure the phosphorylation of endogenous cellular p-SMAD-3 (Ser423/425) in cell lysates and is a system for the screening of both modulators of receptor activation (e.g. agonists and antagonists) as well as agents acting intracellularly, such as small molecule inhibitors of upstream events. The assay will measure p-SMAD-3 (Ser423/425) activation by either cloned or endogenous receptors, and can be applied to primary cells.
(§3) P-SMAD-3 (Ser423/425) SureFire® Assay Protocols
(§4) 96-well Assay Protocol for 293FT and RMS13 adherent cells can be carried out manually or in high throughput with liquid handling robots.
(§5) The cells (80 μL of cells for 96 well plates) were plated in collagen coated tissue culture plates in RPMI or FreeStyle medium (Invitrogen) and incubated overnight. For manual analysis, 6 plates for GDF8, 6 plates for TGFβ, and optionally 6 plates for Alk5ca(ALK5 constitutively active) were used.
(§6) The compound dilution plates were prepared as follows: 12 μL of DMSO was transferred into first column of 96-well plate, and 16 μL of DMSO was transferred into columns 2-12 of the 96-well plate. 12 μL of compound solution was transferred into first column of the DMSO-containing 96-well plate. Three-fold dilution was performed up to column 10 of the DMSO-containing 96-well plate.
(§7) The plate containing cells were treated with compounds for about 10 minutes, and then ligand was added. GDF8 or TGFb was added to plates to stimulate. 293FL cells were stimulated for 90 minutes at 37° C.; and RMS13 cells were stimulated for 60 minutes at 37° C. The medium was then removed from the cells, and 1× Lysis Buffer (about 25 μL) was added and the plate was gently agitated on plate shaker for 5-10 minutes.
(§8) The lysate (5 μL) was then placed into 384-well shallow plates avoiding the generation of bubbles. To this, the Reaction Buffer+Activation Buffer+AlphaScreen® Acceptor beads mixture (5 μL) was added. The plate was sealed with adhesive cover and shielded from light (e.g., with metal foil), and agitated gently on plate shaker for 2 hours at room temperature.
(§9) Dilution buffer+AlphaScreen® Donor beads (2 μL) was then added, and the plate was intubated on the plate shaker for an additional 1½ hours. After completion, the plate was read on Synergy-4 or Enspire plate reader, using AlphaScreen® pSMAD3® settings.
(§10) Representative results for inhibition of GDF8 (data=GDF pSMAD (MPC11) (μM)) and TGF-β (data=TGF-β pSMAD (MPC-11) (μM)) signaling are shown in Table 1: […]

A further assay has as its system GDF8. Nature of the assay: AlphaScreen SureFire SMAD3 (p-Ser423/425) assay, GDF8-stimulated (GDF pSMAD (MPC11)). As to conditions: Mus musculus, MPC-11, inhibition of GDF8 signaling, p-SMAD-3 (Ser423/425). In kind it is cell-based.
Description: as §1, §2, §3, §4, §5, §6, §7, §8, §9, §10

Turning to `COc1cc2[nH]ncc2cc1Nc1nc(-c2ccccc2F)ncc1C` [Compound 62, N-(2-(2-Fluorophenyl)-5-methylpyrimidin-4-yl)-6-methoxy-1H-indazol-5-amine], the IC50 (commonly the concentration at which inhibition is half-maximal) with TGF-β was determined as 381 nM; with GDF8, 335 nM.
Take `COc1cc2[nH]ncc2cc1Nc1nc(-c2ccc(F)c(F)c2)ncc1C` [Compound 63, N-(2-(3,4-Difluorophenyl)-5-methylpyrimidin-4-yl)-6-methoxy-1H-indazol-5-amine]: the IC50 is 395 nM in the assay on TGF-β and 312 nM with GDF8.
